# Measurements taken from patent publication US9271981B2, “Pyrrolo[2,3-D]pyrimidine compounds” (Zoetis Services LLC, priority 2008, dated 2016).
# Tests used:
# flea allergic dogs = experiment: Reducing Flea-associated Pruritus and Dermatitis Assay; type: in vivo; conditions: for pruritus as compared to placebo (seconds of pruritus per 4 hour recording): 10% level of significance
# Method: Twenty eight male and female dogs of mixed breeds ranging in weight from 5-35 kg and greater than one year of age were infested with approximately 100 unfed adult cat fleas (Ctenocephalides felis) 14 days prior to the start of dosing and reinfested with 30 fleas per dog every 4 days throughout the study. Seven days before dosing, twenty four dogs were randomized into three different treatment groups, placebo, 0.5 mg/kg or 0.25 mg/kg of the compound of Example 1b, based on visual analog scale (VAS) scores for skin lesions. Treatments were given orally twice a day for 28 days, and pruritic behavior as well as erythema and skin lesions were was assessed during the study. Pruritic behavior was recorded by placing dogs into pens with video recording capability, and recording their activity over 4 hours. Pruritic activity was quantitated by determining how many seconds the dogs spent scratching. Skin lesions were recorded by image capture of abdominal, inguinal region and the severity ranked according to a visual analog scale (VAS).
# Video captured elapsed time of pruritic behavior was analyzed using a mixed linear model for repeated measures. The model included fixed effects of treatment and day of study and the interaction of treatment and day of study. Random effects included block, the interaction of block and treatment and error. Baseline data for pruritic behavior (day-1) were used as covariate in the analysis of pruritic behavior. Least squares means were used as estimates of treatment means. Standard errors of least squares means were estimated and 90% confidence intervals were constructed. Geometric means were computed from the least squares means for log-transformed data. A priori contrasts were used to assess treatment. Treatment differences were assessed at the 10% level of significance (P≦0.10).
# [1] = system: T-cell proliferation in canine whole blood; experiment: Canine in vitro T-cell Proliferation Assay; type: cell-based; conditions: Canis lupus familiaris, ConA + canine IL-2, tritiated thymidine
# Method: Methods: Canine whole blood was collected in sodium heparin tubes from 29 beagle dogs and 23 mixed breed dogs. Whole blood (20 μL) was plated in 96-well plates (Costar 3598) with 180 μL of medium (RPMI 1640, Gibco #21870-076, with 1% heat inactivated fetal bovine serum, Gibco #10082-39, 292 μg/ml L-glutamine, Gibco #250030-081, 100 u/ml penicillin and 100 μg streptomycin per ml, Gibco #15140-122) containing vehicle control or test compound (0.001 to 10 μM), concanavalin A (ConA; 1 μg/ml, Sigma C5275), and canine interleukin-2 (IL-2; 50 ng/ml, R&D Systems 1815-CL/CF). Wells containing whole blood, medium with vehicle control and no ConA or IL-2 were used as background controls. Plates were incubated at 37° C. for 48 hours. Tritiated thymidine, 0.4 μCi/well (Perkin Elmer, Net027A-005MC), was added for 20 additional hours. Plates were frozen and then thawed, washed and filtered using a Brandel MLR-96 cell harvester and prewet filter mats (Wallac 1205-401, Perkin Elmer). Filters were dried at 60° C. for one hour (Precision 16EG convection oven) and placed into filter sample bags (Wallac 1205-411, Perkin Elmer) with 10 mL of scintillant (Wallac 1205-440, Perkin Elmer). Sealed filters were counted on a LKB Wallac 1205 Betaplate liquid scintillation counter. Data were collected via Gterm Betaplate program v1.1 (Wallac copyright 1989-1990) and transformed into percent inhibition, calculated using the following formula: […]
SMILES,"pruritus as compared to placebo (seconds of pruritus per 4 hour recording) (flea allergic dogs; 0.25 mg/kg orally twice a day, days 1, 4 and 12)","Lesions and erythema (VAS) (flea allergic dogs; 0.5 mg/kg orally twice a day for 28 days, flea allergic dogs)","pruritus as compared to placebo (seconds of pruritus per 4 hour recording) (flea allergic dogs; 0.5 mg/kg orally twice a day, days 1 and 20)",IC50 ([1]; whole blood from beagles),IC50 ([1]; whole blood from mixed breed dogs)
"CNS(=O)(=O)C[C@H]1CC[C@H](N(C)c2ncnc3[nH]ccc23)CC1.O=C(O)/C=C\C(=O)O [Example 1b, N-methyl-1-{trans-4-[methyl(7H-pyrrolo[2,3-d]pyrimidin-4-yl)amino]cyclohexyl}methanesulfonamide maleic acid salt]",Significant reductions,significantly reduced,Significant reductions,–,–
"CN(c1ncnc2[nH]ccc12)[C@H]1CC[C@H](CS(=O)(=O)NC2CCC2)CC1 [Example 2, N-cyclobutyl-1-{trans-4-[methyl(7H-pyrrolo[2,3-d]pyrimidin-4-yl)amino]cyclohexyl}methanesulfonamide]",–,–,–,410 nM,–
"CNS(=O)(=O)C[C@H]1CC[C@H](N(C)c2ncnc3[nH]ccc23)CC1 [Example 1a, N-methyl-1-{trans-4-[methyl(7H-pyrrolo[2,3-d]pyrimidin-4-yl)amino]cyclohexyl}methanesulfonamide]",–,–,–,66.3 nM,138 nM
